Assay results: a melting point compilation (Tetko et al.)

melting point [°C] | SMILES
134 to 136 | N#CCC(=O)c1ccc2c(c1)OCO2
271 to 273 | Cc1n[nH]c(C(=O)O)c1Br
45 to 73 | ClCc1nnnn1-c1ccccc1
174 to 176 | Cc1nc(-c2ccco2)ccc1C(=O)O
159 to 161 | Cc1oc(Cn2cc(Br)cn2)cc1C(=O)O
285 to 287 | O=C(O)c1n[nH]c2ccc(I)cc12
306 to 308 | O=C(CCl)Nc1sc2c(c1C(=O)NCc1ccccc1)CCCC2
159 to 161 | NS(=O)(=O)N1CCc2ccccc2C1
286 to 288 | CCn1c(S)nc2ccsc2c1=O
254 to 256 | CC(NC(=O)CCn1cncn1)C(=O)O (centres undefined)
151 to 153 | O=C1OC(C(=O)O)Cc2ccccc21 (centres undefined)
88 to 92 | CCCCc1ccc(-n2nnnc2S)cc1
179 to 181 | O=C(O)c1sc(-c2ccccc2)nc1C(F)F
206 to 208 | CCOC(=O)Cn1c(=O)[nH]c2cc(Br)cnc21
276 to 278 | N#Cc1ccc(CNc2ccc3[nH]c(=O)[nH]c3c2)cc1
163 to 165 | CC1(c2ccc(C(N)=O)cc2)NC(=O)NC1=O (centres undefined)
113 to 115 | Nc1ncn(Cc2ccccn2)n1
149 to 151 | Oc1ccc(-c2noc(C3CC3)n2)cc1
68 to 70 | CC(NC(=S)NN)C1CC1 (centres undefined)
95 to 97 | Cc1nnc(N2CCC(=O)CC2)s1
155 to 157 | CC1(C)NC(=O)N(CC#N)C1=O
197 to 199 | CC(C)CNc1c(N)n(CC(C)C)c(=O)[nH]c1=O
279 to 281 | Fc1cc(F)cc(-c2n[nH]c(S)n2)c1
141 to 143 | CC(C)c1noc(-c2ccccc2C(=O)O)n1

melting point [°C] | SMILES
231 to 233 | Nc1ccccc1N1C(=O)CCC1=O
229 to 231 | N#Cc1cc(C(=O)O)c[nH]1
100 to 102 | Cc1ccc(S(=O)(=O)N2CCCCC2C(=O)O)cc1 (centres undefined)
156 to 158 | CCN(CC(=O)O)S(=O)(=O)c1cccnc1Cl
112 to 114 | CC(C)Cc1ccc(C(=O)c2cccs2)cc1
123 to 127 | Nc1sc2c(c1C(=O)c1ccccc1)CCCC2
125 to 133 | CCc1nnsc1C(=O)O
184 to 186 | COc1ccc(Nc2nnc(S)s2)cc1
139 to 141 | CN(C)c1nc(CC#N)nc(=N)[nH]1
133 to 135 | CCN(CC)S(=O)(=O)c1cccc(C(=O)NN)c1
216 to 218 | COc1ccc(C(=O)O)cc1S(=O)(=O)NC1CCCC1
98 to 100 | CC(C)NS(=O)(=O)c1cccc(CN)c1
84 to 86 | CNC(=O)COc1ccc(C(C)O)cc1 (centres undefined)
141 to 143 | CCOC(=O)C1=NN(c2ccc(Cl)cc2)C(=O)C1
86 to 88 | Cc1cccc(OCC(=O)N2CCNCC2)c1C
148 to 150 | O=C(O)c1cc(S(=O)(=O)Cl)c(F)cc1Br
83 to 87 | CCOC(=O)c1c(N)sc2c1CCN(CC)C2
191 to 193 | NCCNC(=O)c1ccc(O)cc1
179 to 181 | Cc1cc(C)c([N+](=O)[O-])c(=O)[nH]1
65 to 67 | Nc1cccnc1-n1cccn1
114 to 116 | O=C(O)C(=O)C=Cc1cccs1
172 to 174 | OCCNc1ncnc2ccccc12
65 to 67 | O=C1CC(CO)CN1CCc1ccccc1 (centres undefined)
222 to 224 | O=C(O)c1cc(Cl)nc(N2CCOCC2)c1

melting point [°C] | SMILES
185 to 187 | O=C(O)c1cc2ccc(SC(F)(F)F)cc2[nH]1
84 to 86 | N#Cc1csc(C=O)c1
172 to 174 | Nc1ccc(F)c(NS(=O)(=O)Cc2ccccc2)c1
70 to 72 | CCOC(=O)c1cnn2c(C(=O)OCC)c(CCCO)cnc12
59 to 61 | CC(=O)N(CCC#N)C(C)C
76 to 78 | CC(C)C1CCNC(=O)CC1 (centres undefined)
182 to 184 | O=C(O)Cc1csc(NC(=O)OCC(F)(F)F)n1
65 to 67 | CC(C)N(CCC(=O)O)C(=O)OC(C)(C)C
144 to 146 | O=C(O)c1cc(S(=O)(=O)Cl)c(F)cc1Cl
62 to 64 | Clc1ccc(Cl)c(OCC2CO2)c1 (centres undefined)
206 to 208 | O=C(O)c1cnc2onc(C3CC3)c2c1
197 to 199 | O=C(O)CN1CCC(=O)NC1=O
156 to 158 | Cn1cnc2cc(Br)ccc2c1=O
100 to 102 | COC(=O)c1ccc(-c2nc(C3CC3)no2)cc1
134 to 136 | CC(C)c1ncncc1C(=O)O
169 to 171 | Cc1cc(CSc2ncccc2C(=O)O)no1
139 to 141 | CCCOc1ccc2c(c1)OCC(C(=O)O)C2 (centres undefined)
206 to 208 | O=C(O)C1CC(O)CN1C(=O)c1ccc(F)cc1 (centres undefined)
87 to 89 | COc1cccc(NCCC(=O)O)c1
173 to 175 | NS(=O)(=O)CCS(=O)(=O)c1ccc(F)cc1
76 to 78 | C1CN(CCC23CC4CC(CC(C4)C2)C3)CCN1
55 to 57 | ClCc1cc2c(cc1Cl)OCCCO2

Continued, molecule first:

SMILES | melting point [°C]
Cc1ccc(-c2nonc2N)cc1 | 139 to 141
COc1cccc(NC(=O)CC#N)c1 | 154 to 156
CC(C)Sc1ccc(Cl)nn1 | 56 to 58
COC(=O)c1cc(S(=O)(=O)Cl)ccc1Cl | 79 to 81
CN(C)S(=O)(=O)c1ccc(-c2csc(N)n2)cc1 | 243 to 245
O=c1[nH]c2ccc(NCc3ccccc3)cc2[nH]1 | 242 to 244
CC(Cl)C(=O)c1ccc(Br)cc1 (centres undefined) | 54 to 56
Cc1cc(N)n(-c2ccccn2)n1 | 102 to 104
COc1ccc(N2C(=O)C=CC2=O)cn1 | 122 to 124
Cc1ccc(C(=O)C(Cl)c2ccc(C)cc2)cc1 (centres undefined) | 67 to 69
CSC(=S)NN=C(C)c1ccccc1 | 149 to 151
CCNC(=O)c1cccc(N)c1 | 69 to 71
COC(=O)c1cccc(S(N)(=O)=O)c1 | 131 to 133
CC(=O)Nc1ccccc1C=O | 67 to 69
NC(=NO)c1cccc(F)c1 | 73 to 75
CCOc1ccc(N)cc1S(N)(=O)=O | 154 to 156
CC(C)(C)c1ccc(C(=O)Nc2ccc(O)cc2)cc1 | 196 to 198
CN(C)c1ccc(N)cc1Cl | 72 to 73
O=C(O)c1csc(C(=O)CCl)c1 | 147 to 149
O=C(O)c1cc(/C=C/c2ccc(C(F)(F)F)cc2)nc2ccc(Br)cc12 | 316 to 318
O=Cc1ccc(OCC(=O)O)c(Br)c1 | 196 to 198
O=C1OCc2c1cccc2S(=O)(=O)Cl | 124 to 126
COC(=O)c1ccc(S(=O)(=O)Cl)c(Cl)c1 | 64 to 66
O=C(O)[C@@H](Cl)c1ccccc1 | 56 to 58
CC(=O)c1cccc(S(N)(=O)=O)c1 | 143 to 145

SMILES | melting point [°C]
NC(=NO)c1cccc([N+](=O)[O-])c1 | 182 to 184
O=C(O)C(Oc1ccc(Cl)cc1Br)c1ccccc1 (centres undefined) | 135 to 137
COc1cccc(Oc2ccc(N)cc2)c1 | 62 to 64
COc1ccc(CC(=O)O)cc1F | 110 to 112
CC(C)(Cc1ccccc1)C(=O)O | 49 to 51
Cc1ccc(N)c(OCC(=O)N(C)C)c1 | 83 to 85
O=C(O)c1ccc(Cl)c(S(=O)(=O)N(Cc2ccccc2)c2cccc(C(F)(F)F)c2)c1 | 201 to 203
CSc1ccccc1CC(=O)O | 115 to 117
O=[N+]([O-])c1ccc(NCc2ccccn2)cc1 | 119 to 121
C#CCOc1cccc(S(C)(=O)=O)c1 | 89 to 91
O=C(CCl)c1ccc(F)c(Cl)c1 | 37 to 39
Nc1ccc(S(F)(F)(F)(F)F)cc1Br | 58 to 60
C#CCNC(=O)C(C)Cl (centres undefined) | 61 to 63
CNc1ccc(Br)cn1 | 69 to 71
Nc1c(C(=O)O)cc([N+](=O)[O-])cc1[N+](=O)[O-] | 266 to 268
Cc1c(C(=O)O)oc2ccc(Br)cc12 | 249 to 251
COc1ccccc1C(=O)NCC(=O)O | 69 to 71
CCOC(=O)c1cccnc1S | 99 to 101
Cc1sc2ncnc(Sc3ccccc3C(=O)O)c2c1C | 200 to 202
Cc1cc(=O)oc2ccc(OCC(=O)O)cc12 | 153 to 155
Fc1ccccc1CNc1ccncc1 | 83 to 85
Cc1c(I)cccc1C(=O)O | 113 to 115
Cc1ccnc(N)c1C#N | 148 to 150
Cc1ccc(OC(C)C(=O)O)c(Br)c1 (centres undefined) | 120 to 122
c1ccc(NCc2ccc3c(c2)OCO3)cc1 | 78 to 80

SMILES | melting point [°C]
N#CCCn1cc(C=O)c(-c2ccccc2)n1 | 74 to 76
Clc1ccc2nnc(-c3ccccc3)n2n1 | 201 to 203
O=C(O)C=Cc1ccc2ccc(Cl)cc2n1 | 226 to 228
Nc1nsc(N2CCNCC2)n1 | 193 to 195
OCc1c(Cl)ccc2cccnc12 | 93 to 95
O=[N+]([O-])c1cncc(Br)c1Cl | 45 to 47
O=C(O)c1cc(Cl)c2ccccc2c1O | 228 to 230
COC(=O)C(=O)CC(=O)c1cc(Cl)ccc1Cl | 150 to 152
CC(=O)c1cccc(OCc2cc(C(=O)O)no2)c1 | 169 to 171
Cc1cc(Cl)c(CO)c(Cl)n1 | 81 to 83
CC(C)C(=O)Nc1ccc(N)cc1 | 74 to 76
CN(C)c1ncccc1O | 173 to 175
Nc1ccccc1-c1ccc(-c2ccccc2)cc1 | 163 to 165
Clc1ccc(-c2nnc(Br)s2)cc1 | 135 to 137
CCc1c(O)nc(S)n(-c2cccc(OC)c2)c1=O | 141 to 143
O=Cc1cnn2ccccc12 | 82 to 84
Cc1cc(-c2nc3cc(F)ccc3n2C)ccc1N | 174 to 176
Oc1ccc(Oc2ccccn2)cc1 | 142 to 144
Cc1ccc(N)cc1S(=O)(=O)Nc1ccc(SC(F)F)cc1 | 227 to 230
CC(C)(C)C(=O)Nc1cccc(C(=O)O)c1 | 211 to 213
CC(C)(C)OC(=O)NCc1nnc(S)o1 | 106 to 108
CN(C)c1ncc(Br)cc1C(=O)O | 143 to 145
COc1ccc(C)cc1-n1nnnc1S | 164 to 166
O=C(O)CCC(=O)NCC(=O)c1ccc(F)cc1F | 173 to 175
